For assay [1], the system named is C. elegans complex III (decylubiquinol-cytochrome C reductase). The assay can be described thus: In vitro complex III activity assay, C. elegans mitochondria. The following applies: for % Activity Complex III: 100 µM compound, relative to solvent control, mean (SEM); for CIII Activity: 100 μM inhibitor, in vitro activity relative to solvent control, N2 C. elegans mitochondria; for Percent in vitro activity, Complex III (single replicate Rep1-Rep4) / Percent in vitro activity, Complex III (Mean): 100 μM of NPD compound, C. elegans mitochondria; for Percent in vitro activity, Complex III (single replicate Rep1-Rep4): individual biological replicates; for Percent in vitro activity, Complex III (Mean): mean of four biological replicates. Format: biochemical, Caenorhabditis elegans. Summed up:
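Mitochondria were isolated from adult C. elegans by bead-beating and differential centrifugation, then used at 0.2 mg/mL protein. Antimycin A-sensitive complex III activity was followed as decylubiquinol-driven cytochrome C reduction at 550 nm every 30 s for 15 min. Initial linear slopes were expressed as percent of solvent control.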

The test system of assay [2] is C. elegans complex IV (cytochrome C oxidase). Description: In vitro complex IV activity assay, C. elegans mitochondria. Format: biochemical, Caenorhabditis elegans. Conditions: for % Activity Complex IV: 100 µM compound, relative to solvent control, mean (SEM); for CIV Activity: 100 μM inhibitor, in vitro activity relative to solvent control, N2 C. elegans mitochondria; for Percent in vitro activity, Complex IV (single replicate Rep1-Rep4) / Percent in vitro activity, Complex IV (Mean): 100 μM of NPD compound, C. elegans mitochondria; for Percent in vitro activity, Complex IV (single replicate Rep1-Rep4): individual biological replicates; for Percent in vitro activity, Complex IV (Mean): mean of four biological replicates. The essentials:
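Cytochrome C oxidase activity read spectrophotometrically at 550 nm (30 s intervals, 15 min) as oxidation of freshly DTT-reduced CytC. Mitochondria (0.2 mg/mL) came from adult worms of six C. elegans strains grown at 20 °C. Rates were taken from initial linear phase and normalised to solvent-control wells.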

For the next assay, the system named is adult H. polygyrus. It is filed as cell-based, Heligmosomoides polygyrus. The following applies: 10 µM, 24-h exposure, aerobic. The procedure:
After either 24- or 72 h chemical treatment, worm viability was manually scored by an examiner using a scale from 0 (dead) to 3 (motile); DMSO was used as a negative control in both 24- and 72 h treatments. The percentage of affected worms (i.e., worms with a score equal to or lower than 1.5) in each biological replicate is shown; data are from two biological replicates. Within each boxplot, black horizontal lines denote group medians, boxes span from the 25th to the 75th percentile of each group’s distribution, and whiskers extend to the maximum and minimum values.
The eleven benzimidazole derivatives were tested at a concentration of 10 µM under aerobic conditions against L3 and adult H. polygyrus.
For the larval assay, mice feces were collected 2 weeks post-infection and eggs were isolated. The eggs were left on agar at room temperature in the dark for eight to 10 days to allow them to develop into L3. Next, 30–40 L3 were incubated (37 °C, 5% CO2) in the culture medium (RPMI 1640 medium + 1% pen./strep. + 5% amphotericin B) containing the derivatives in 96-well plate (Corning, USA) reaching a final volume of 250 µL for 24 h. For the adult drug screening assay, female NMRI mice were euthanized with CO2 and adult H. polygyrus were dissected out of the intestines. Subsequently, three worms were exposed to the culture medium (RPMI 1640 medium + 1% pen./strep. + 5% amphotericin B) with the derivatives (2 mL) in a 24-well plate (Corning, USA) for either 24 or 72 h. DMSO ( < 1%) served as a negative control in both assays. All conditions were tested in duplicates. Finally, 80 µL of hot water ( ~ 80 °C) for L3 and 500 µL of hot water (~80 °C) for adults were added to the wells to check for their viability under a microscope (Carl Zeiss, Germany). Larvae were categorized as being either alive or dead, depending on whether they moved or not. […] The whole experiment was performed two times i.e., two independent biological replicates for both life stages (L3s and adults) and exposure times (24 and 72 h).

Each structure is given as a SMILES string. Where “and” joins values, the source holds several entries; their conditions need not be identical. Equal values may be shown once.

Regarding `C=C(C)[C@H]1Cc2c(ccc3c2O[C@@H]2COc4cc(OC)c(OC)cc4[C@@H]2C3=O)O1` [Rotenone, reference compound], in assay [1], the “% Activity Complex III” value is 99.20 (1.32) %; the “Percent in vitro activity, Complex III (single replicate Rep1-Rep4)” value was 102.759% and 97.964% and 103.800% and 92.288%; the “Percent in vitro activity, Complex III (Mean)” value (from here on “Percent … Complex III (Mean)”) is given as 99.203%. In assay [1] (Mean), the “CIII Activity” value came out at 99.203%. Besides, in assay [1] (single replicate), the “CIII Activity” value was 92.288% and 102.759% and 97.964% and 103.800%. In assay [2], the “% Activity Complex IV” value is 99.57 (1.12) %; the “Percent in vitro activity, Complex IV (single replicate Rep1-Rep4)” value is 102.333% and 104.163% and 97.333% and 94.435%; the “Percent in vitro activity, Complex IV (Mean)” value (shortened to “Percent … Complex IV (Mean)”) is 99.566%. Also, the “CIV Activity” value in assay [2] (Mean) is 99.566%. Besides, the “CIV Activity” value in assay [2] (single replicate) is 94.435% and 102.333% and 104.163% and 97.333%.
As to `O=C(NCCc1ccc(Cl)cc1)c1ccccc1C(F)(F)F` [Wact-11], in assay [1], the “% Activity Complex III” value was 90.97 (1.75) %; the “Percent in vitro activity, Complex III (single replicate Rep1-Rep4)” value was 83.802% and 95.824% and 97.988% and 86.268%; the “Percent … Complex III (Mean)” value amounted to 90.970%. Further, the “CIII Activity” value in assay [1] (Mean) was 90.970%. Moreover, the “CIII Activity” value in assay [1] (single replicate) was 83.802% and 95.824% and 97.988% and 86.268%. In addition, in assay [2], the “% Activity Complex IV” value is recorded as 89.00 (0.63) %; the “Percent in vitro activity, Complex IV (single replicate Rep1-Rep4)” value was 91.037% and 86.647% and 91.305% and 87.004%; the “Percent … Complex IV (Mean)” value is recorded as 88.998%. The “CIV Activity” value in assay [2] (Mean) was determined as 88.998%. In addition, the “CIV Activity” value in assay [2] (single replicate) is 91.037% and 86.647% and 91.305% and 87.004%.
With `CC(C)Cc1ccc(C(C)c2nc3ccccc3n2C)cc1` (stereo not drawn) [NPD8790], in assay [1], the “% Activity Complex III” value was 63.54 (0.90) %; the “Percent in vitro activity, Complex III (single replicate Rep1-Rep4)” value is 58.669% and 65.835% and 63.074% and 66.590%; the “Percent … Complex III (Mean)” value was determined as 63.542%. For the same molecule, the “effect on adult H. polygyrus viability” value with adult H. polygyrus was “potent effects”. Also, in assay [2], the “% Activity Complex IV” value was 79.84 (1.34) %; the “Percent in vitro activity, Complex IV (single replicate Rep1-Rep4)” value was 83.143% and 80.952% and 83.287% and 71.964%; the “Percent … Complex IV (Mean)” value is recorded as 79.837%.

(Values after publication PMC11079024, “Identification of a family of species-selective complex I inhibitors as potential anthelmintics” (Nature Communications, 2024).)
